Laboratory results from PubChem BioAssay (NCI).
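96-well plates; 48 h exposure; 5 concentrations. Endpoints by linear interpolation between flanking doses. Not reached: highest tested concentration assigned. GI50 is the concentration that inhibits growth by half. TGI is the concentration that stops growth completely.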

How the values were obtained:
Test in all cases: NCI anticancer screen, dose series, 48 h
A549 NSCLC = tested on: A549 NSCLC
HCT-15 colon = tested on: HCT-15 colon
K-562 leukemia = tested on: K-562 leukemia
M14 melanoma = tested on: M14 melanoma
NCI-H226 lung = tested on: NCI-H226 lung
NCI-H23 lung = tested on: NCI-H23 lung
OVCAR-4 ovarian = tested on: OVCAR-4 ovarian
OVCAR-8 ovarian = tested on: OVCAR-8 ovarian
SF-268 CNS = tested on: SF-268 CNS
NCI-H522 lung = tested on: NCI-H522 lung

| SMILES | GI50 (A549 NSCLC) [µM] | TGI (A549 NSCLC) [µM] | GI50 (HCT-15 colon) [µM] | TGI (HCT-15 colon) [µM] | GI50 (K-562 leukemia) [µM] | TGI (K-562 leukemia) [µM] | GI50 (M14 melanoma) [µM] | TGI (M14 melanoma) [µM] | GI50 (NCI-H226 lung) [µM] | TGI (NCI-H226 lung) [µM] | GI50 (NCI-H23 lung) [µM] | TGI (NCI-H23 lung) [µM] | GI50 (OVCAR-4 ovarian) [µM] | TGI (OVCAR-4 ovarian) [µM] | GI50 (OVCAR-8 ovarian) [µM] | TGI (OVCAR-8 ovarian) [µM] | GI50 (SF-268 CNS) [µM] | TGI (SF-268 CNS) [µM] | GI50 (NCI-H522 lung) [µM] | TGI (NCI-H522 lung) [µM] |
| --- | --- | --- | --- | --- | --- | --- | --- | --- | --- | --- | --- | --- | --- | --- | --- | --- | --- | --- | --- | --- |
| C/C(=N\NC(=O)c1ccncc1)c1ccc(O)cc1O | 5.87 | > 100 | 4.83 | > 100 | 6.62 | > 100 | 6.44 | > 100 | 5.14 | 80.9 | 11.4 | > 100 | 2.68 | > 100 | 2.93 | > 100 | 2.19 | > 100 |  |  |
| COc1ccc(Nc2ncccc2C(=O)NCc2cn(Cc3cccc(Oc4ccccc4)c3)nn2)cc1 | 3.44 | > 100 | 3.93 | > 100 | 3.48 | > 100 |  |  | 3.92 | > 100 | 3.45 | > 100 | 5.19 | > 100 | 3.72 | > 100 | 4.59 | > 100 | 2.13 | 5.44 |
| Oc1cc2c(cc1O)-c1[nH]ncc1CC2 |  | > 100 |  | > 100 |  | > 100 |  | > 100 |  | 69 |  | > 100 |  |  |  | > 100 |  | > 100 |  | 25.5 |
| Cc1nc2cc(N)c(Cl)cc2[nH]1 |  | > 100 |  | > 100 |  | > 100 |  | > 100 |  | > 100 |  | > 100 |  |  |  | > 100 |  | > 100 |  | > 100 |
| O=C(c1ccc2c3c(ccc(C(=O)C(F)(F)F)c13)CC2)C(F)(F)F |  | > 100 |  | > 100 |  |  |  | > 100 |  | > 100 |  | > 100 |  | > 100 |  | > 100 |  | > 100 |  | 98.9 |
| COc1ccc(C(=O)O)c(Cc2ccc3ccccc3c2)c1 |  | > 100 |  |  |  | > 100 |  | > 100 |  | > 100 |  | > 100 |  | > 100 |  | > 100 |  | > 100 |  | > 100 |
| CC[C@]12CCCN3CC[C@]4(C(=C(C(=O)OC)C1)Nc1ccccc14)[C@@H]32 | 16.3 | 42.6 | 13.7 | 28.5 | 11.9 | 43.4 | 20.5 | 51.7 |  |  | 17.1 | 43.8 | 15.4 | 54.8 | 17.6 | 38.9 | 18 | 37.8 | 13 | 30.3 |
| CC(O[Si](C)(C)C)C1C=CC(C)n2c(=O)n(-c3ccccc3)c(=O)n21 (stereo not given) |  | > 100 |  | > 100 |  | > 100 |  | > 100 |  |  |  | > 100 |  | > 100 |  | > 100 |  |  |  |  |
| CCCN1CCN(c2ccc3nc(-c4ccc5nc(-c6ccc(OCC)c(OCC)c6)[nH]c5c4)[nH]c3c2)CC1 | 0.808 | 2.35 | 1.87 | 10.3 |  |  | 0.195 | 1.39 | 0.495 | 2.06 | 0.251 | 0.765 | 0.449 | 1.84 | 0.451 | 2.16 | 1.6 | 6.1 |  |  |
| O=C1C(Cl)=C(Nc2cccc(O)c2)C(=O)N1c1cccc(Cl)c1Cl | 15 | 45.9 | 20.7 | 56.7 | 13.5 | 29.6 | 14.8 | 31.7 |  |  | 14.4 | 34.6 | 15.6 | 40.5 | 15.1 | 30.4 | 11.7 | 28.8 | 12.4 | 27 |
| CCN1CCN(C(=O)[C@]23CCC(C)(C)C[C@@H]2C2=CC[C@@H]4[C@@]5(C)C/C(=C/c6cccnc6)C(=O)C(C)(C)[C@@H]5CC[C@@]4(C)[C@]2(C)CC3)CC1 | 2.62 | 13.4 | 1.08 | 2.71 | 1.43 | > 100 | 1.6 | 3.15 |  |  | 2.1 | 5.85 | 2.17 | 7.85 | 2.14 | 5.54 | 1.59 | 4.79 | 1.61 | 3.75 |
| O=C(CCl)Nc1ccc2c(c1)C(=O)c1ccc(NC(=O)CCl)cc1C2=O | 2.79 | > 100 | 0.183 | 0.469 | 0.319 | > 100 | 0.236 | 0.781 | 0.229 | 0.711 | 0.253 | 0.834 |  |  | 0.439 | > 100 | 0.386 | 1.92 | 0.194 | 0.57 |
| COc1ccc(/C(C)=N/NC(N)=S)c(OC)c1 |  | > 100 |  | > 100 |  | > 100 |  | > 100 |  | > 100 |  | > 100 |  |  |  | > 100 |  | > 100 |  | 62.3 |
| C[n+]1ccc(-c2c3nc(c(-c4ccc5c(ccc[n+]5C)c4)c4ccc([nH]4)c(-c4cc[n+](C)cc4)c4nc(c(-c5ccc6c(ccc[n+]6C)c5)c5ccc2[nH]5)C=C4)C=C3)cc1 | 38.1 | > 50 | > 50 | > 50 | 31.4 | > 50 | > 50 | > 50 |  |  | > 50 | > 50 | 27.5 | > 50 | > 50 | > 50 | > 50 | > 50 | > 50 | > 50 |
| N#CC1=C(c2ccccc2)C(O)(c2ccccc2)NC1=O (stereo not given) |  | > 100 |  | > 100 |  | > 100 |  | > 100 |  | > 100 |  | > 100 |  | > 100 |  | > 100 |  | > 100 |  |  |
| O=c1/c(=C/c2ccc3c(c2)OCO3)sc2nnc(-c3ccco3)n12 |  | > 100 |  |  |  | > 100 |  | > 100 |  | > 100 |  | > 100 |  | > 100 |  | > 100 |  | > 100 |  | > 100 |
| CN(C)/C=N/c1nc2ncn(CCOC(=O)c3ccccc3)c2c(=O)[nH]1 |  | > 100 |  | > 100 |  | > 100 |  | > 100 |  | > 100 |  |  |  | > 100 |  | > 100 |  | > 100 |  | > 100 |
| CCSc1nc2n(c(=S)n1)CCN2C |  | 61.3 |  | 40.6 |  | 79.5 |  | 31.5 |  | 42.8 |  |  |  | 44.5 |  | 64.7 |  | 65.8 |  | 19.3 |
